Measured values as given in patent US7569605B2, “Methods of treating central nervous system disorders with a low dose combination of escitalopram and bupropion” (Forest Laboratories Holdings Limited, priority 2005, dated 2009).
Values joined by “and” are separate entries in the source; they are usually repeats but may differ in a detail not shown here. Equal entries are not always repeated. Marks after values point to notes of the source that are not given here.

Experiments:
[1] = test system: rat dorsal raphe nucleus (DRN) 5-HT neurons; assay: effects on rat dorsal raphe nucleus serotonin neurons (extracellular unitary recordings of firing); assay type: in vivo; settings: anesthetized rats; two days treatment; escitalopram 10 mg/kg s.c. minipump, bupropion 30 mg/kg s.c. once daily
Method: Glass electrodes were lowered into the DRN 5-HT neurons were identified by their firing pattern and spike duration. […] NS). […] The experiments were carried out in male Sprague Dawley rats (Charles River, St. Constant, Québec, Canada) weighing between 300 to 325 g being kept under standard laboratory conditions (12:12 light-dark cycle with access to food and water ad libitum). Rats were anaesthetized with chloral hydrate (400 mg/kg, i.p.) and mounted in a stereotaxic apparatus (David Kopf Instruments, Tujunga, Calif., USA). […] Body temperature was maintained at 37° C. throughout the experiments utilizing a thermistor-controlled heating pad (Seabrook Medical Instruments, Inc., […], Canada). Prior to electrophysiological recording, rats were inserted with a catheter in a lateral tail vein for systemic injection of drugs. Rats received escitalopram oxalate administered through an osmotic minipump implanted subcutaneously, under halothane anaesthesia, which delivered 10 mg/kg/day. The recordings were carried out with the minipump in the animals. Bupropion hydrochloride was injected subcutaneously once a day at a dose of 30 mg/kg for 2 days with the last dose administered immediately prior to the electrophysiological experiments. […] Their impedance range was between 2 and 4 MΩ. […] Serotonin neurons were recorded with micropipettes lowered at +1.0 mm interaural on midline. […]

[2] = test system: patients with major depressive disorder (MDD); assay: double-blind fixed dose comparison in major depressive disorder: efficacy (MADRS, HAMD, CGI, HAMA, QOL); assay type: in vivo, human; design: key to QOL: LS mean change from baseline to endpoint (LOCF): aggregated 5-point item scores; higher = greater enjoyment/satisfaction; HAMD17: LS mean change from baseline to endpoint (LOCF): scale not given here; settings: escitalopram 4 mg, bupropion XL 150 mg, 8 weeks; for CGI % response: CGI-I response = 1 or 2; for HAMD17 % remission: HAMD17 remission <=7; for HAMD24 % response: HAMD24 response >=50% improvement; for MADRS % remission: MADRS remission <=12; for MADRS % response: MADRS response >=50% improvement; for CGI-I: LS mean (LOCF) / CGI-S: LS mean change from baseline to endpoint (LOCF) / HAMA: LS mean change from baseline to endpoint (LOCF) / HAMD17: LS mean change from baseline to endpoint (LOCF) / HAMD24 2° parameter, validated: LS mean change from baseline to endpoint (LOCF) / HAMD cognit disturb: LS mean change from baseline to endpoint (LOCF) / HAMD psychomotor: LS mean change from baseline to endpoint (LOCF) / MADRS 1° parameter, validated: LS mean change from baseline to endpoint (LOCF) / QOL: LS mean change from baseline to endpoint (LOCF): vs placebo
Method: This clinical study is conducted as a double-blind, randomized, fixed-dose, multicenter, parallel-group study in outpatients as shown in the Figure below: […] Approximately 135 patients are randomized to each of four treatment groups (placebo, escitalopram oxalate 4 mg, bupropion hydrochloride 150 mg, or escitalopram oxalate 4 mg/bupropion hydrochloride 150 mg), for a total of […]. A randomized, double-blind, fixed-dose, multicenter, parallel-group study is conducted in outpatients with MDD. […] Assignment to a treatment group is according to a computer-generated randomization schedule. […] The following primary efficacy assessments are performed at patient visits: […] The following secondary efficacy assessments are performed at patient visits: […] The following additional efficacy assessments are performed at patient visits: […] This scale rates the severity of the patient's current state of mental illness based on the investigator's clinical opinion with regard to a patient population with MDD. The patient is rated on a scale of 1 to 7 with 1 being normal and 7 being a patient who was among the most extremely ill. […] Based on the investigator's clinical opinion, this scale rates the total improvement or worsening in the patient's mental illness from his/her baseline assessment, regardless of whether or not the investigator considered it due to drug treatment. The patient is rated on a scale from 1 to 7 with 1 being very much improved and 7 being very much worse. […] Each item is scored on a 5 point scale with 0 reflecting no symptoms and 4 reflecting symptoms of maximum severity. […] Five-point item scores are aggregated, with higher scores indicative of greater enjoyment or satisfaction in each domain. Dosing: For the single-blind lead-in period, patients are supplied with placebo capsules. For the double-blind period, identical appearing capsules are supplied which contain placebo, escitalopram 4 mg, or bupropion extended-release 150 mg. […] All study medication is administered as a single daily dose throughout the study, preferably at the same time each evening starting on the day the medication is dispensed to the patient. Dosing is subsequently be switched to morning, if preferred. […] Patients are instructed to return all unused medication at each study visit. […] Patients are instructed to take two capsules daily as a single dose beginning on the day study medication is dispensed. […] Patients are assigned the lowest randomization number available at the site. Patients are instructed to take two capsules daily as a single dose beginning on the day study medication is dispensed. In accordance with their assigned treatment group, patients receive placebo, 4 mg escitalopram, 150 mg bupropion, or 4 mg escitalopram and 150 mg bupropion per day. […] Patients are instructed to continue taking two capsules daily as a single dose. In accordance with their assigned treatment group, patients receive placebo, 4 mg escitalopram, 150 bupropion, or 4 mg escitalopram and 150 mg bupropion per day. Efficacy: All efficacy analyses are based on the Intent-to-Treat (ITT) Population. […] All efficacy analyses are performed using both the Last Observation Carried Forward (LOCF) and the Observed Cases (OC) approach. In these analyses, the last observed value before a post-baseline missing value are carried forward to impute the missing value. […] For OC analyses, only observed values are used. […] The primary analysis is performed using the LOCF approach. Three primary comparisons between the escitalopram/bupropion combination group relative to each of the three other groups (placebo, escitalopram, or bupropion) are performed using an ANCOVA model with the treatment group and center as factors and the baseline MADRS score as a covariate. […] The analyses are carried out using a similar statistical model as used for the primary efficacy parameter. […]

[3] = test system: patients with major depressive disorder (MDD); assay: Arizona Sexual Experiences Scale (ASEX) in the fixed dose comparison study; assay type: in vivo, human
Method: The study consists of a one-week single-blind placebo lead-in period followed by an 8 week double-blind treatment period. Approximately 135 patients are randomized to each of four treatment groups (placebo, escitalopram oxalate 4 mg, bupropion hydrochloride 150 mg, or escitalopram oxalate 4 mg/bupropion hydrochloride 150 mg), for a total of […].
A randomized, double-blind, fixed-dose, multicenter, parallel-group study is conducted in outpatients with MDD. Patients who meet eligibility criteria at Screening (Visit 1) enter a one-week, single-blind, lead-in period of placebo treatment. Patients who complete the lead-in period and continue to meet all entry criteria at Baseline (Visit 2) are randomly assigned to 8 weeks of double-blind treatment with either placebo, escitalopram 4 mg, bupropion XL 150 mg, or escitalopram 4 mg/bupropion XL 150 mg combination. Assignment to a treatment group is according to a computer-generated randomization schedule.
The Arizona Sexual Experiences Scale (ASEX) is completed at Visits 2 and 7, or early termination. Different versions are used for males and females. This 5 item patient-rated scale assesses sexual experiences with respect to libido, psychological and physiological arousal, ability to attain orgasm, and satisfaction with orgasm. Each item is scored on a 6 point scale with higher numbers indicating greater sexual dysfunction.

ASEX Change in total scores (improvement = reduction in score) ([3]; Females) | ASEX Change in total scores (improvement = reduction in score) ([3]; Males) | SMILES | spontaneous firing of DRN 5-HT neurons [1] [Hz] | CGI % response [2] | HAMD17 % remission [2] | HAMD24 % response [2] | MADRS % remission [2] | MADRS % response [2] | CGI-I: LS mean (LOCF) [2] | CGI-S: LS mean change from baseline to endpoint (LOCF) [2] | HAMA: LS mean change from baseline to endpoint (LOCF) [2] | HAMD17: LS mean change from baseline to endpoint (LOCF) [2] | HAMD24 2° parameter, validated: LS mean change from baseline to endpoint (LOCF) [2] | HAMD cognit disturb: LS mean change from baseline to endpoint (LOCF) [2] | HAMD psychomotor: LS mean change from baseline to endpoint (LOCF) [2] | MADRS 1° parameter, validated: LS mean change from baseline to endpoint (LOCF) [2] | QOL: LS mean change from baseline to endpoint (LOCF) [2]
−1.6571 | −1.4222 | CC(NC(C)(C)C)C(=O)c1cccc(Cl)c1 (racemic) [bupropion, (±)-1-(3-chlorophenyl)-2-[(1,1-dimethylethyl)amino]-1-propanone] | 1.54 | 46.6% and 46.62% | 29.3% and 29.32% | 42.9% and 42.86% | 37.6% and 37.59% | 43.6% and 43.61% | −0.11 | −0.27 | −1.31 | −0.75 | −1.10 | −0.21 | −0.33 | −1.08 | 1.97
−1.0000 | +0.1667 | CN(C)CCC[C@@]1(c2ccc(F)cc2)OCc2cc(C#N)ccc21 [escitalopram, 1-[3-(dimethyl-amino)propyl]-1-(p-fluorophenyl)-5-phthalancarbonitrile] | 0.35 | 56.5% and 56.49* % | 29.8% and 29.77% | 46.6% and 46.56* % | 35.9% and 35.88% | 47.3% and 47.33* % | 0.33* | −0.32* | −1.91* | −0.75 | −1.15 | −0.29 | −0.16 | −2.51* | 2.25
